# Measurements from patent US20200085789A1, “USE OF A PROTEASOME INHIBITOR FOR THE TREATMENT OF CENTRAL NERVOUS SYSTEM (CNS) CANCERS” (Celgene International II Sàrl, priority 2017, published 2020).
# Tested on: proteasome (CT-L, T-L and C-L activity)
# Assay: Blood proteasome inhibition (CT-L, T-L, C-L activity in packed whole blood and PBMC lysates)
# Assay type: in vivo, human
# Settings: for % C-L inhibition / % CT-L inhibition / % T-L inhibition: PWB, post-Marizomib infusion (peak effect)
# Text: The drugs were infused on 28-Day Cycles.
# Change in proteasome activities in packed whole blood (PWB) lysates and peripheral blood mononuclear cell (PBMC) lysates, comparing pre-drug and post drug levels on Days 1, 8, and 15 of Cycle 1; Days 1 and 15 of each Cycle thereafter; and at the End-of Treatment Visit.
# The laboratory correlates include assessment of the percentage inhibition of proteasome function (evaluated by measurement of CT-L, T-L and C-L activity in blood isolates such as whole blood and PBMC lysates.
# PD analysis will include change in proteasome activities (whole blood lysates and PBMC lysates) by comparing pre-drug and post drug levels on Days 1, 8, and 15 (i.e., for each dose) of Cycle 1 and Days 1 and 15 (i.e., for the first and last doses) of each cycle thereafter.
smiles,measurement,setting,value
"C[C@@]12OC(=O)[C@]1([C@@H](O)[C@@H]1C=CCCC1)NC(=O)[C@@H]2CCCl [MRZ, marizomib]",% C-L inhibition,0.7 mg/m^2,50.4 ± 9.1 (3) %
same,% CT-L inhibition,0.7 mg/m^2,100 ± 0 (3) %
same,% T-L inhibition,0.7 mg/m^2,77.3 ± 10.5 (3) %
same,% C-L inhibition,0.8 mg/m^2,51.9 ± 8.3 (3) %
same,% CT-L inhibition,0.8 mg/m^2,100 ± 0 (3) %
same,% T-L inhibition,0.8 mg/m^2,69.3 ± 7.2 (3) %
same,Proteasome inhibition on chymotrypsin-like (CT-L) domains,cohorts 1 and 2,maximal
same,trypsin-like (T-L) and caspase-like (C-L) activity,cohorts 1 vs 2,Dose-dependent inhibition
